# Measured values published in patent US20240124486A1, “MACROCYCLIC TLR7 AGONIST, PREPARATION METHOD THEREFOR, PHARMACEUTICAL COMPOSITION AND USE THEREOF” (SHANGHAI VISONPHARMA CO., LTD., priority 2020, published 2024).
# Legend:
# [1] = molecular target: T1, human TLR7 (Homo sapiens, UniProt Q9NYK1); assay: Agonistic activity on human TLR7 in HEK-Blue hTLR7 cell line (QUANTI-Blue reporter); assay type: cell-based; conditions: HEK-Blue hTLR7 cells, 16-22 h incubation, absorption at 630 nm; read-out: EC50 value of the agonistic effect on human TLR7
# T1 construct: host or cells: HEK-Blue hTLR7 (HEK293-derived reporter cells)
# T1 sequence (Q9NYK1 27-1049): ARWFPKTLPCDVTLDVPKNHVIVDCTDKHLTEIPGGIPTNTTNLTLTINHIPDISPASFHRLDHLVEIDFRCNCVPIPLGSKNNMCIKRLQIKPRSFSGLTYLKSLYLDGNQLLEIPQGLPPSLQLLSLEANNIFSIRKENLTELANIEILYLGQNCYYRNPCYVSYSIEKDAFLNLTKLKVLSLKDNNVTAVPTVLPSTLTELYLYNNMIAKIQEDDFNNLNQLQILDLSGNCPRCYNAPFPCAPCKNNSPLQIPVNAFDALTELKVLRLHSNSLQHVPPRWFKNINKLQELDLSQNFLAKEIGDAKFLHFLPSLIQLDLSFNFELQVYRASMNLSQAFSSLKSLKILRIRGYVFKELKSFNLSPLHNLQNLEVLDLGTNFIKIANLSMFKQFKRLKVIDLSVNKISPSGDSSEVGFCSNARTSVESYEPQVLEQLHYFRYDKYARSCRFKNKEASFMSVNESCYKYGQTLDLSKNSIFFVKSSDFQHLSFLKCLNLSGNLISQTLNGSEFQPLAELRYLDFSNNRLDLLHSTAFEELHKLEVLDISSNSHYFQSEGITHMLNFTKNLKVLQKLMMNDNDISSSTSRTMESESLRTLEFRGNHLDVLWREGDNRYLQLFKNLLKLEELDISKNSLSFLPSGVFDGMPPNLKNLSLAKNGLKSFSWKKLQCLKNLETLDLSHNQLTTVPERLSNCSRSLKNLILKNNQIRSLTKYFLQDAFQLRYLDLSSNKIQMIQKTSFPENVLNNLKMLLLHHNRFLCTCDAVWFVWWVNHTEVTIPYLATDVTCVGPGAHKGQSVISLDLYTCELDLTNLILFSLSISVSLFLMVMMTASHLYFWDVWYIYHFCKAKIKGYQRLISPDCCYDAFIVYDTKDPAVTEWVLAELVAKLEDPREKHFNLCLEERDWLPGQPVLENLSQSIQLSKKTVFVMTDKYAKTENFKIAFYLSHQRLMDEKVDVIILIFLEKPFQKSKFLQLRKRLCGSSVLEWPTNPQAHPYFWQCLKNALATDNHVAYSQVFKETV
# Procedure: The TLR7 agonistic activity of the compounds of the invention in HEK-Blue™ hTLR7 cell line with stable expression of human TLR7 were assayed using the following method: • 1. Weighed the test compounds and prepared stock solutions with DMSO (Sigma) at a concentration of 10 mM. […] The highest concentration was 1 mM. • 2. The test compounds and DMSO control were diluted 10-fold in DPBS buffer (Gibco) and then added to a 96-well cell culture plate (Corning) at a volume of 20 μL/well. • 3. HEK-Blue™ hTLR7 cells (Invivogen) were digested with cell separation solution (Gibco), and counted (TC-20 cell counter, Bio-rad). Cells were diluted to 4.4E5/ml using DMEM cell medium (Gibco). Added the cells to a 96-well cell culture plate at a volume of 180 μL/well. The cells were incubated for 16-22 h at 37° C. in a 5% CO2 incubator. • 4. Prepared QUANTI-Blue detection reagent (Invivogen), and added into a new 96-well plate at a volume of 180 μL/well. Twenty μL of cell culture supernatant was transferred from the cell culture plate and added to the 96-well plate and incubated at 37° C. for 1-3 hours. • 5. Neo2 multifunctional microplate reader (Bio-Tek) was used to measure the optical absorption at 630 nm, and the EC50 was calculated by GraphPad Prism.
# The agonistic effect of the compounds of the invention on human TLR7 can be determined by the above experiments, and the measured EC50 value is shown in Table 1.
# [2] = system: human peripheral blood mononuclear cells; assay: IFN-α production by human peripheral blood mononuclear cells stimulated by compounds (ELISA); assay type: cell-based; conditions: human PBMC, about 8 hours, supernatant ELISA
# Procedure: • 1. The frozen human peripheral blood mononuclear cells (Miaotong Biotechnology Co., LTD., PB010C) were dissolved in water bath at 37° C. After counting, the cells were diluted to 0.2M/mL, and 150 uL/well was added to the 96-well cell culture plate, and the cells were incubated for 40 hours. • 2. The test compounds were weighed and prepared with DMSO at a concentration of 10 mM. DMSO was used to dilute the test compounds by a 10-fold gradient, with a total of four concentration gradients. The highest concentration was 400 μM. • 3. The test compounds, DMSO control and positive controls were diluted 100 times with cell culture medium (RPMI 1640 cell medium, Gibco), and 50 μL was added to 96-well cell culture plates. • 4. The cells were incubated at 37° C. for about 8 hours, and the supernatant was collected by centrifugation. The level of IFN-α in the supernatant was determined by ELISA (IFN-α ELISA kit, Dakewe). • 5. Light absorption at 450 nm was measured by microplate reader, and IFN-α level in culture supernatant was quantified according to the standard curve.
SMILES,EC50 [1] [nM],IFN-α concentration post stimulation ([2]; compound 0.1 nM) [pg/mL],IFN-α concentration post stimulation ([2]; compound 1 nM) [pg/mL],IFN-α concentration post stimulation ([2]; compound 10 nM) [pg/mL]
CC(C)N1CCc2c3cc(cc2C1)Cn1c(=O)[nH]c2c(N)nc(nc21)OCCCCC3 [Compound I-35],10,251,2767,2776
Nc1nc2nc3c1[nH]c(=O)n3Cc1cc(c3c(c1)CN(C1CCC1)CC3)CCCCCO2 [Compound I-37],10,428,1973,2078
Nc1nc2nc3c1[nH]c(=O)n3Cc1cc(c3c(c1)CCN(C1CCC1)C3)CCCCCO2 [Compound I-51],6,530,2759,2472
CC(C)(C(=O)O)N1CCc2c3cc(cc2C1)Cn1c(=O)[nH]c2c(N)nc(nc21)OCCCCC3 [Compound I-26],105,12,11,96
CC(C)N1CCc2cc3cc(c2C1)CCCCCOc1nc(N)c2[nH]c(=O)n(c2n1)C3 [Compound I-50],2,1509,2615,2173
"CCCCOc1nc(N)c2c(n1)N(Cc1cccc(CN3CCCC3)c1)CC(=O)N2 [Vesatolimod, reference compound]",,,12,12
COCCN1CCc2c3cc(cc2C1)Cn1c(=O)[nH]c2c(N)nc(nc21)OCCCCC3 [Compound I-48],11,13,2431,2784
"Nc1nc2nc3c1[nH]c(=O)n3Cc1ccc(OC3CCNCC3)c(c1)C/C=C/CCO2 [Reference 1, reference compound]",15,9,74,159
"Nc1nc2nc3c1[nH]c(=O)n3Cc1ccc(O)c(c1)C/C=C/CCO2 [Reference 3, reference compound]",41,8,9,284
Nc1nc2nc3c1[nH]c(=O)n3Cc1cc3c(c(c1)OCCCCO2)CCN(C1CCC1)C3 [Compound I-60],14,12,2412,3127
"Nc1nc2nc3c1[nH]c(=O)n3Cc1ccc(Oc3ccc(CNC4CC4)cc3)c(c1)C/C=C\CCO2 [Reference 2, reference compound]",31,8,161,558
Nc1nc2nc3c1[nH]c(=O)n3Cc1cc(c3c(c1)CNCC3)CCCCCO2 [Compound I-10],26,,,
